The results in this text go back to PMC7985170, “Marine Peptide-N6NH2 and Its Derivative-GUON6NH2 Have Potent Antimicrobial Activity Against Intracellular Edwardsiella tarda in vitro and in vivo” (Frontiers in Microbiology, 2021).

≈ marks a conversion by molar mass, not a printed value. Where a SMILES comes first, the peptide text is derived from it. Bridges are numbered along the chain shown (N, C = ends). The star is where a group is joined. Orn(α-tetramethylguanidino) = CN(C)C(=N[C@@H](CCCN)C(=O)*)N(C)C

Assay [1] relates to E. tarda. The assay is described as follows: SEM and TEM morphology. The note with it: 4× MIC, 2 h. Format: cell-based, Edwardsiella tarda. Here is the method: To further characterize the bactericidal effects of the peptides, scanning electron microscopy (SEM) and transmission electron microscopy (TEM) were used to visualize morphological changes ([Yang et al., 2019]). E. tarda was cultured to logarithmic growth stage (10^8 CFU/mL) and diluted with 0.01 M PBS (pH 7.4) to OD600 nm = 1. E. tarda cells were treated with 4× MIC peptides at 37°C for 2 h and the untreated cells were used as the control. Briefly, after centrifugation, the bacterial cells were washed three times with 0.1 M PBS (pH 7.2) and fixed overnight at 4°C with 2.5% glutaraldehyde. After washing again, the cells were fixed with 1% osmium tetroxide (OsO4) for 2 h and dehydrated in a graded ethanol series (50%–70%–85%–95% × 2–100%, × 2) for 15 min, respectively. The samples were then dried by CO2, sputtered with gold-palladium, and observed on a QUANTA200 SEM (FEI, Philips, Netherlands).
E. tarda cells were treated peptides before fixation as described above. The bacteria were washed with 0.01 M PBS (pH 7.4) for five times, 7 min each time, and fixed with 1% osmium acid buffer (4°C) for 1 h. After dehydration with a graded acetone series (30%–50%–70%–85%–95%–100% × 3), the cells were immersed in mixtures of acetone and resin (3:1, 1:1 and 1:3, respectively) for 40 min and in a pure epoxy resin overnight. The samples were then embedded in embedding medium and polymerized at 45°C for 3 h and at 65°C for 24 h, respectively. The sections were prepared using an ultramicrotome, stained with 1% uranyl acetate, and visualized by a JEM1400 (JEDL, Tokyo, Japan).

Assay [2] has as its system E. tarda. The assay can be described thus: Time-killing curve. Conditions: 2× or 4× MIC, MHB, 1 × 10^5 CFU/mL, 28°C. Type of assay: cell-based, Edwardsiella tarda. Here is the method:
Time-killing curve of peptides was performed according to the previous method ([Flamm et al., 2019]). E. tarda was cultured to logarithmic phase, diluted in Mueller Hinton broth (MHB) (1 × 10^5 CFU/mL) containing 1×, 2×, or 4× MIC of peptides, and cultured at 28°C (200 rpm). PBS was added as a control. Bacterial samples (100 μL) were removed at different time intervals (0, 0.5, 1, 1.5, 2, 4, 6, 8, 10, 12, 22, and 24 h) and were counted on MH solid plates. The time-killing curves of peptides were plotted. Bacterial cells treated with 2× MIC norfloxacin and without treatment were used as the positive and blank controls, respectively.

For assay [3], the system named is Salmonella pullorum CVCC1802. Type of assay: cell-based. As to the method:
(§1) The antimicrobial activity of peptides was determined by the microbroth dilution method ([Zhang et al., 2014]). The bacterial strains were incubated in Mueller-Hinton (MH) medium at 28°C or 37°C overnight. Bacteria (1 × 10^5 CFU/mL) were added into 96-well plates, followed by the addition of serial dilutions of peptides (from 0.0625 to 128 μg/mL). The plates were incubated at 37°C for 18–24 h. The minimal inhibitory concentration (MIC) value was determined as the lowest peptide concentration at which no bacterial growth was observed.

Assay [4] concerns Salmonella typhimurium CVCC533. Format: cell-based. The note with it: murium CVCC533. Here is the method: as §1
Assay [5] has as its system Staphylococcus aureus ATCC43300. Type of assay: cell-based. As to the method: as §1
Assay [6] deals with Edwardsiella tarda. Format: cell-based. As to the method:
as §1

Assay [7] relates to Staphylococcus hyicus 437-2. Type of assay: cell-based. Here is the method:
as §1

Assay [8] relates to Escherichia coli CVCC195. Type of assay: cell-based. As to the method: as §1
Assay [9] relates to inner membrane of E. tarda. The assay is described as follows: Inner membrane penetration, PI staining by flow cytometry. Format: cell-based, Edwardsiella tarda. Conditions: 1× MIC, 5–30 min at 37°C, 1 × 10^8 CFU/mL. Here is the method:
Mid-log phase E. tarda cells (1 × 10^8 CFU/mL) were incubated with or without 1× MIC peptides solutions at 37°C for 5, 15, and 30 min, respectively. After washing twice with PBS, bacterial cells were then incubated with 50 μg/mL propidium iodide (PI) for 15 min and analyzed using a FACS Calibur Flow Cytometer (BD, United States) ([Stearns-Kurosawa et al., 2011]).

The test system of assay [10] is S. aureus ATCC546. Format: cell-based, Staphylococcus aureus. Here is the method: as §1
Assay [11] deals with S. aureus ATCC25923. Format: cell-based, Staphylococcus aureus. As to the method: as §1
Assay [12] deals with Gram-positive bacteria. The assay can be described thus: Geometric mean of MICs and therapeutic index. Conditions: for GM Gram-positive bacteria: geometric mean (GM) of MICs against Gram-positive bacteria; for TI Gram-positive bacteria: therapeutic index (TI), cell selectivity. Type of assay: cell-based. As to the method:
as §1
(§2) The geometric mean (GM) of MICs of peptides against Gram-negative and Gram-positive bacteria was calculated, and the result was shown in Table 3. […] For Gram-negative bacteria, the TI value of GUON6NH2 (53.33) was very close to N6NH2 (58.18), while for positive bacteria, the TI value of GUON6NH2 (12.8) was slightly higher than that of N6NH2 (12.31), indicating their huge therapeutic potential. For Gram-positive bacteria, DN6NH2 had the highest TI value and the best therapeutic potential.

The subject of assay [13] is Gram-negative bacteria. The assay can be described thus: Geometric mean of MICs and therapeutic index. Type of assay: cell-based. The note with it: for GM Gram-negative bacteria: geometric mean (GM) of MICs against Gram-negative bacteria; for TI Gram-negative bacteria: therapeutic index (TI), cell selectivity. Here is the method:
as §1, §2

Assay [14] deals with Gram-negative and Gram-positive bacteria (ALL). The assay is described as follows: Geometric mean of MICs and therapeutic index. Conditions: for GM ALL: geometric mean (GM) of MICs, all strains; for TI ALL: therapeutic index (TI), cell selectivity. Format: cell-based. Here is the method: as §1, §2
Assay [15] concerns S. typhimurium ATCC14028. Format: cell-based, Salmonella typhimurium. Here is the method: as §1
The test system of assay [16] is E. tarda. The assay is described as follows: Post-antibiotic effect (PAE). Type of assay: cell-based, Edwardsiella tarda. The note with it: 4× MIC.

As to `CC(C)[C@@H]1NC(=O)CNC(=O)[C@H](CC(N)=O)NC(=O)[C@H](CCCNC(=N)N)NC(=O)[C@H](Cc2ccc(O)cc2)NC(=O)[C@H](C(C)C)NC(=O)[C@@H](NC(=O)[C@@H](NC(=O)[C@H](CC(N)=O)NC(=O)[C@H](Cc2c[nH]c3ccccc23)NC(=O)[C@H](C)NC(=O)[C@H](Cc2ccccc2)NC(=O)CN)C(C)C)CSSC[C@@H](C(=O)N[C@@H](Cc2cnc[nH]2)C(=O)N[C@@H](CCCNC(=N)N)C(=O)N[C@@H](CCCNC(=N)N)C(=O)N[C@@H](C)C(=O)N[C@@H](CC(N)=O)C(N)=O)NC(=O)[C@H](C(C)C)NC(=O)[C@H](CCCNC(=N)N)NC1=O` [N6NH2], the “morphological changes by SEM” value in assay [1] was “some protrusions were observed on the cell surfaces”. Also, in [2], the “time to completely kill E. tarda” value is reported as not above 6 h. Further, the MIC – broadly, the lowest concentration that inhibits growth of the organism – in assay [3] is 4 µg/mL (≈ 1.62 µM); in assay [4] it was 4 µg/mL (≈ 1.62 µM); in [5], 16 µg/mL (≈ 6.46 µM); in [6], 8 µg/mL (≈ 3.23 µM); in assay [7], 32 µg/mL (≈ 12.9 µM); in [8] it was 4 µg/mL (≈ 1.62 µM). In addition, the MIC in assay [10] was 16 µg/mL (≈ 6.46 µM); in assay [11], 32 µg/mL (≈ 12.9 µM); in assay [15], 4 µg/mL (≈ 1.62 µM). Moreover, the “penetration rate (PI-stained cells)” value in [9] was 0.99–1.71%. In assay [12], the “GM Gram-positive bacteria” value was 20.8 µg/mL. Moreover, the “TI Gram-positive bacteria” value in assay [12] stood at 12.31. For the same compound, in [13], the “GM Gram-negative bacteria” value turned out to be 4.4 µg/mL. Besides, the “TI Gram-negative bacteria” value in assay [13] turned out to be 58.18. Further, the “GM ALL” value in assay [14] is 9.87 µg/mL. In addition, the “TI ALL” value in [14] turned out to be 25.94.

On to `CC(C)[C@@H]1NC(=O)CNC(=O)[C@H](CC(N)=O)NC(=O)[C@H](CCCNC(=N)N)NC(=O)[C@H](Cc2ccc(O)cc2)NC(=O)[C@H](C(C)C)NC(=O)[C@@H](NC(=O)[C@@H](NC(=O)[C@H](CC(N)=O)NC(=O)[C@H](Cc2c[nH]c3ccccc23)NC(=O)[C@H](C)NC(=O)[C@H](Cc2ccccc2)NC(=O)[C@H](CCCN)N=C(N(C)C)N(C)C)C(C)C)CSSC[C@@H](C(=O)N[C@@H](Cc2c[nH]cn2)C(=O)N[C@@H](CCCNC(=N)N)C(=O)N[C@@H](CCCNC(=N)N)C(=O)N[C@@H](C)C(=O)N[C@@H](CC(N)=O)C(N)=O)NC(=O)[C@H](C(C)C)NC(=O)[C@H](CCCNC(=N)N)NC1=O` [GUON6NH2] ({Orn(α-tetramethylguanidino)}-FAWNVCVYRNGVRVCHRRAN-NH2; disulfide 6-15), for which, in assay [1], the “morphological changes by SEM” value was “some protrusions were observed on the cell surfaces”. Also, the “time to completely kill E. tarda” value in assay [2] is listed as not above 6 h. For the same compound, the MIC in assay [3] came to 4 µg/mL (≈ 1.52 µM); in assay [4], 8 µg/mL (≈ 3.04 µM); in assay [5] it was 16 µg/mL (≈ 6.08 µM); in assay [6] it was 8 µg/mL (≈ 3.04 µM); in assay [7], 32 µg/mL (≈ 12.2 µM); in assay [8], 4 µg/mL (≈ 1.52 µM). Further, the results for the MIC in [10], in assay [11] and in [15] were 16 µg/mL (≈ 6.08 µM), 32 µg/mL (≈ 12.2 µM) and 4 µg/mL (≈ 1.52 µM), respectively. Besides, the “penetration rate (PI-stained cells)” value in assay [9] is given as 0.78–2.84%. For the same compound, the “GM Gram-positive bacteria” value in assay [12] was determined as 20 µg/mL. In [12], the “TI Gram-positive bacteria” value amounted to 12.8. Also, the “GM Gram-negative bacteria” value in [13] was determined as 4.8 µg/mL. In addition, in [13], the “TI Gram-negative bacteria” value turned out to be 53.33. The “GM ALL” value in assay [14] came to 9.87 µg/mL. The “TI ALL” value in assay [14] came to 25.94. Also, the “PAE, times longer than that of norfloxacin” value in assay [16] stood at 1.27 times.
